We go through 49 substances from patent publication US10517889B2, “Modulators of SMAD7 expression” (Ionis Pharmaceuticals, Inc., priority 2017, dated 2019).

Strand notation (5' to 3'): a small letter for the sugar, then the base; units joined by * are phosphorothioate-linked, units joined directly phosphodiester-linked; [ ] holds rarer units or linkages, { } end groups; capitals alone tell only the bases. k = constrained ethyl (cEt); [5mC] = 5-methylcytosine; d = 2'-deoxy (DNA)

The first data set concerns human SMAD7 mRNA. The data set is described as follows: Antisense inhibition of human SMAD7 mRNA expression in Hep3B cells by 3-10-3 cEt gapmers, 10,000 nM, electroporation (Example 2). The data set is classed as cell-based. Particulars: Hep3B cells, electroporation with 10,000 nM antisense oligonucleotide, approximately 24 hours, RTS5062, percent inhibition of SMAD7 mRNA relative to untreated control cells. In a few lines: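 Hep3B cells (20,000/well) were electroporated with 10,000 nM 3-10-3 cEt gapmer (16-mer, phosphorothioate, 5-methylcytosines) and harvested after about 24 h. SMAD7 mRNA quantified by RT-qPCR with primer probe set RTS5062, normalized to total RNA by RiboGreen; percent inhibition relative to untreated cells.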
As to “799514 (antisense kT*k[5mC]*kG*dG*dA*dG*dT*dT*dT*d[5mC]*d[5mC]*dT*d[5mC]*kA*k[5mC]*kT) [compound 799514]”, the % Inhibition (commonly the share of the control response that was lost under treatment) came out at 40%.
Regarding “799524 (antisense kA*kT*k[5mC]*dA*dA*dG*dG*dG*d[5mC]*dA*dG*dA*dA*kG*kG*k[5mC]) [compound 799524]”, the “% Inhibition” value was 23%.
Take “799525 (antisense kA*kG*kG*dT*dT*dT*dG*dG*dG*dT*dT*dG*dG*kA*k[5mC]*kT) [compound 799525]”: the “% Inhibition” value is listed as 8%.
Regarding “799526 (kA*kA*kG*dG*dA*dG*dG*dT*dT*dT*dG*dG*dG*kT*kT*kG; antisense) [compound 799526]”, the “% Inhibition” value turned out to be 12%.
As for “799527 (kG*kT*k[5mC]*dA*dA*dA*dG*dG*dA*dG*dG*dT*dT*kT*kG*kG; antisense) [compound 799527]”, the “% Inhibition” value is reported as 4%.
“799528 (k[5mC]*kG*kG*dA*dT*dA*d[5mC]*d[5mC]*dA*dG*dG*dT*dG*kG*kT*kT; antisense) [compound 799528]”: the “% Inhibition” value came out at 17%.
Turning to “799529 (kG*kA*kA*dT*dT*dT*d[5mC]*dT*d[5mC]*dT*dT*dG*d[5mC]*kA*kT*kT; antisense) [compound 799529]”, the “% Inhibition” value is given as 27%.
With “799530 (kG*k[5mC]*kT*d[5mC]*dA*dA*dT*dG*dA*dG*dA*d[5mC]*dT*kG*kG*k[5mC]; antisense) [compound 799530]”, the “% Inhibition” value is 34%.
For the substance “799531 (k[5mC]*kT*kT*dT*dA*dG*d[5mC]*dA*dA*dT*dT*dT*d[5mC]*kA*kA*kA; antisense) [compound 799531]”, the “% Inhibition” value was determined as 32%.
As for “799532 (kG*k[5mC]*kA*dG*dA*dA*dG*dG*d[5mC]*d[5mC]*dA*d[5mC]*d[5mC]*k[5mC]*k[5mC]*k[5mC]; antisense) [compound 799532]”, the “% Inhibition” value is listed as 21%.
In the case of “799533 (kG*kA*kA*dT*dG*dA*dA*dG*dT*d[5mC]*d[5mC]*dA*dG*kA*k[5mC]*k[5mC]; antisense) [compound 799533]”, the “% Inhibition” value is on record as 50%.

The data set is the same for the next values; noted with them: Hep3B cells, electroporation with 10,000 nM antisense oligonucleotide, approximately 24 hours, SMAD7 mRNA by RT-PCR (RTS5062), relative to untreated control cells.
Take “799485 (antisense kA*kG*k[5mC]*d[5mC]*dA*d[5mC]*dT*d[5mC]*d[5mC]*d[5mC]*d[5mC]*dG*d[5mC]*k[5mC]*kA*k[5mC]) [compound 799485]”: the “% Inhibition” value was 0%.
For the substance “799487 (antisense kA*kA*kA*d[5mC]*dA*dT*dA*dA*dT*dG*dA*d[5mC]*dT*kT*kA*kT) [compound 799487]”, the “% Inhibition” value is 0%.
On to “799488 (antisense kT*kG*kG*dA*dA*dG*dA*d[5mC]*dA*d[5mC]*d[5mC]*d[5mC]*d[5mC]*k[5mC]*kA*k[5mC]) [compound 799488]”, for which the “% Inhibition” value is reported as 42%.
In the case of “799489 (antisense kT*k[5mC]*kT*dA*dA*dA*d[5mC]*d[5mC]*dA*dT*dT*dT*dT*kG*kA*kT) [compound 799489]”, the “% Inhibition” value was determined as 0%.
In the case of “799490 (antisense kT*kT*kA*dA*dA*dT*dG*dG*dT*dG*dT*dA*dT*kA*k[5mC]*k[5mC]) [compound 799490]”, the “% Inhibition” value came to 0%.
On to “799491 (antisense kG*kG*k[5mC]*dA*dG*dG*d[5mC]*dA*dG*dG*dA*dA*dA*kT*kG*kG) [compound 799491]”, for which the “% Inhibition” value is 38%.
As for “799492 (antisense kA*kA*kA*d[5mC]*dA*dA*dT*dA*dG*dA*dG*dG*d[5mC]*kA*kG*kG) [compound 799492]”, the “% Inhibition” value is given as 58%.
Regarding “799493 (antisense kA*kT*kA*d[5mC]*dA*d[5mC]*dT*dT*dA*dA*dT*d[5mC]*dA*kA*kA*k[5mC]) [compound 799493]”, the “% Inhibition” value stood at 1%.
For “799494 (antisense kA*kG*kG*dA*dT*dA*d[5mC]*dA*d[5mC]*dT*dT*dA*dA*kT*k[5mC]*kA) [compound 799494]”, the “% Inhibition” value is given as 45%.
On the same count and under the same terms, in the case of “799505 (antisense k[5mC]*k[5mC]*k[5mC]*dG*dG*d[5mC]*dT*dA*dA*dG*dG*dA*dA*kA*kG*kG) [compound 799505]” it was 31%; in that of “799506 (antisense kG*kG*kA*dG*dA*dG*d[5mC]*d[5mC]*d[5mC]*dG*dG*d[5mC]*dT*kA*kA*kG) [compound 799506]”, 4%.
For the substance “799507 (antisense kA*k[5mC]*kT*d[5mC]*dA*dT*dT*dA*dG*dT*d[5mC]*d[5mC]*d[5mC]*kA*kT*kG) [compound 799507]”, the “% Inhibition” value is given as 34%.
The same measure, in the same setting: with “799508 (antisense kG*k[5mC]*kA*dA*dT*dT*dA*dA*dA*dG*d[5mC]*dA*dA*kA*kA*k[5mC]) [compound 799508]” the figure was 0%; with “799510 (antisense kG*kA*kG*dA*dA*dA*d[5mC]*dA*dG*dT*d[5mC]*dT*d[5mC]*k[5mC]*kA*k[5mC]) [compound 799510]”, 57%.
Take “799512 (antisense kG*kT*kT*dA*dA*dT*dG*dA*dG*dG*dA*dT*dA*kA*kT*kG) [compound 799512]”: the “% Inhibition” value is 16%.
Take “799513 (antisense kT*kA*k[5mC]*d[5mC]*dT*dT*dT*dA*dG*dA*dT*dT*dG*k[5mC]*kA*kT) [compound 799513]”: the “% Inhibition” value is listed as 66%.

The same data set, now with this note: Hep3B cells, electroporation with 10,000 nM antisense oligonucleotide, approximately 24 hours, primer probe set RTS5062, relative to untreated control cells.
Turning to “799482 (antisense kG*kA*kA*dA*dA*dG*d[5mC]*d[5mC]*dG*dG*dG*d[5mC]*dA*kT*k[5mC]*kT) [compound 799482]”, the “% inhibition of SMAD7 mRNA expression” value stood at 30%.
The same measure, in the same setting: in the case of “799483 (antisense k[5mC]*kA*kA*dA*dG*dG*dA*dA*dA*dA*dG*d[5mC]*d[5mC]*kG*kG*kG) [compound 799483]” it was 35%; in that of “799484 (antisense k[5mC]*kG*k[5mC]*d[5mC]*dA*d[5mC]*d[5mC]*dT*dT*dT*dG*dG*d[5mC]*kT*kG*kG) [compound 799484]”, 0%.
Consider “799495 (antisense k[5mC]*kT*kA*dA*d[5mC]*dA*dG*dG*dA*dA*dT*dA*dT*kA*k[5mC]*kA) [compound 799495]”, for which the “% inhibition of SMAD7 mRNA expression” value came out at 25%.
In the case of “799497 (antisense kA*kA*kG*dA*dA*d[5mC]*dT*d[5mC]*dT*d[5mC]*d[5mC]*dT*dA*kA*kG*k[5mC]) [compound 799497]”, the “% inhibition of SMAD7 mRNA expression” value was 0%.

Staying with this data set, now noted: Hep3B cells, electroporation, 10,000 nM antisense oligonucleotide, approximately 24 hours, RTS5062, relative to untreated control cells.
Turning to “799498 (antisense kT*k[5mC]*kA*dA*dG*dA*dA*d[5mC]*dT*d[5mC]*dT*d[5mC]*d[5mC]*kT*kA*kA) [compound 799498]”, the “% inhibition of SMAD7 mRNA expression” value is 31%.
Turning to “799499 (antisense kT*k[5mC]*k[5mC]*dT*dT*dT*dA*dG*dT*dG*dG*d[5mC]*d[5mC]*kT*kA*k[5mC]) [compound 799499]”, the “% inhibition of SMAD7 mRNA expression” value is listed as 54%.
For the substance “799500 (antisense kG*kA*kG*d[5mC]*dA*dG*dA*d[5mC]*dG*dG*dG*d[5mC]*dA*kA*kG*kT) [compound 799500]”, the “% inhibition of SMAD7 mRNA expression” value is recorded as 28%.
Turning to “799501 (antisense kA*kA*kA*dA*dG*dA*dG*d[5mC]*dA*dG*dA*d[5mC]*dG*kG*kG*k[5mC]) [compound 799501]”, the “% inhibition of SMAD7 mRNA expression” value is 0%.
In the case of “799502 (antisense k[5mC]*kA*kA*dA*dT*dA*dG*dG*dA*dA*dA*dG*d[5mC]*k[5mC]*kA*kA) [compound 799502]”, the “% inhibition of SMAD7 mRNA expression” value was determined as 31%.
As to “799503 (antisense kG*kG*k[5mC]*d[5mC]*dA*d[5mC]*d[5mC]*dA*dG*dG*dA*d[5mC]*dA*kA*kT*kG) [compound 799503]”, the “% inhibition of SMAD7 mRNA expression” value was found to be 0%.
As to “799504 (antisense kA*kG*kG*dA*dA*dA*dG*dG*dT*dG*d[5mC]*dT*dG*k[5mC]*k[5mC]*k[5mC]) [compound 799504]”, the “% inhibition of SMAD7 mRNA expression” value stood at 15%.
With “799515 (antisense k[5mC]*k[5mC]*k[5mC]*d[5mC]*dA*dG*dA*d[5mC]*d[5mC]*dT*dG*d[5mC]*dT*kA*kA*kG) [compound 799515]”, the “% inhibition of SMAD7 mRNA expression” value came out at 38%.
Still for that read-out and setting: with “799516 (antisense k[5mC]*kA*k[5mC]*d[5mC]*dA*dG*dA*dT*d[5mC]*dA*dA*dG*dA*k[5mC]*kA*kG) [compound 799516]” the figure was 0%; with “799517 (antisense k[5mC]*kT*kT*dA*dA*dG*dT*dA*dG*dA*dG*d[5mC]*dA*kA*kA*kG) [compound 799517]”, 0%.
For “799518 (antisense kA*k[5mC]*kT*dT*dA*dA*dG*dT*dA*dG*dA*dG*d[5mC]*kA*kA*kA) [compound 799518]”, the “% inhibition of SMAD7 mRNA expression” value is listed as 38%.
On to “799519 (antisense kA*kA*k[5mC]*dT*dT*dA*dA*dG*dT*dA*dG*dA*dG*k[5mC]*kA*kA) [compound 799519]”, for which the “% inhibition of SMAD7 mRNA expression” value amounted to 44%.
“799520 (antisense kG*kA*kT*dT*dG*dA*dT*dG*dT*dT*dG*dG*dG*k[5mC]*kT*kG) [compound 799520]”: the “% inhibition of SMAD7 mRNA expression” value is 51%.
As for “799521 (antisense kT*kA*kA*dA*dG*dA*d[5mC]*dA*dG*dG*dT*dT*dT*k[5mC]*k[5mC]*k[5mC]) [compound 799521]”, the “% inhibition of SMAD7 mRNA expression” value amounted to 57%.
Still for that read-out and setting: in the case of “799522 (antisense kT*kT*kT*dA*dA*dA*dG*dA*d[5mC]*dA*dG*dG*dT*kT*kT*k[5mC]) [compound 799522]” it was 32%; in that of “799523 (antisense kG*kG*k[5mC]*dA*dG*dA*dA*dG*dG*d[5mC]*dT*d[5mC]*dT*k[5mC]*kT*k[5mC]) [compound 799523]”, 28%; in that of “799535 (kA*kA*k[5mC]*dT*dT*dA*dA*dG*dG*d[5mC]*dA*dT*dA*kT*kA*kA; antisense) [compound 799535]”, 42%.
